Laboratory results reported in ChEMBL document CHEMBL1155121, “4-Hydroxy-5-pyrrolinone-3-carboxamide HIV-1 integrase inhibitors” (Bioorg Med Chem Lett, 2008).
Active and inactive are the calls of the source. The rule behind the calls is not given here.

Columns and labels:
[1] = molecular target: Human immunodeficiency virus type 1 integrase (Human immunodeficiency virus 1, UniProt Q7ZJM1); assay: Inhibition of recombinant HIV1 integrase strand transfer activity
[2] = tested on: Human immunodeficiency virus 1; assay: Antiviral activity against HIV1 in human MT4 cells at 25 uM; type: functional
[3] = tested on: MT4; assay: Cytotoxicity against human MT4 cells up to 20 uM; type: cell-based
[4] = tested on: Plasma; assay: Fraction unbound in human plasma; type: ADME, cell-free

Chain of Human immunodeficiency virus type 1 integrase (Q7ZJM1 whole entry): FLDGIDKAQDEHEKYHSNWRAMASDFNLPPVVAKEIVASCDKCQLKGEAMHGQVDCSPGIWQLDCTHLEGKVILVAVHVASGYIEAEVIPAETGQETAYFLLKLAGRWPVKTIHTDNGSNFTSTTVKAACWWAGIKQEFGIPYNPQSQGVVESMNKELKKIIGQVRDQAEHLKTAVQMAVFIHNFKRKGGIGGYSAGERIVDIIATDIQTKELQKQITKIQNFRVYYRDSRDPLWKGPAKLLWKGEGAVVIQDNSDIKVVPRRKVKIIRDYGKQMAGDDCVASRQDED

Structure (SMILES) | IC50 [1] [nM] | Activity [2] | Activity [3] | Fu [4] [%]
COc1ccccc1CCN1CC(C(=O)NCc2ccc(F)cc2)=C(O)C1=O | 4 | inactive | Not Active | 
O=C(NCc1ccc(F)cc1)C1=C(O)C(=O)N(CCN2CCCCC2)C1 | > 1000 | inactive | Not Active | 
O=C(NCc1ccc(F)cc1)C1=C(O)C(=O)N(CCCc2ccccc2)C1 | 5 | inactive | Not Active | 
O=C(NCc1ccc(F)cc1)C1=C(O)C(=O)N(Cc2ccccc2)C1 | 100 | inactive | Not Active | 
O=C(NCc1ccc(F)cc1)C1=C(O)C(=O)N(CCN2CCOCC2)C1C(=O)NCc1ccc(F)cc1 (stereo not drawn) | > 1000 | inactive | Not Active | 
O=C(NCc1ccc(F)cc1)C1=C(O)C(=O)N2CCCCC12 (stereo not drawn) | 18 | 35% | Not Active | 
Cc1cccc(CN2CC(C(=O)NCc3ccc(F)cc3)=C(O)C2=O)c1 | 6 | inactive | Not Active | 
O=C(NCc1ccc(F)cc1)C1=C(O)C(=O)N(Cc2ccccn2)C1 | 94 | inactive | Not Active | < 1
CN1C(=O)C(O)=C(C(=O)NCc2ccc(F)cc2)C1c1ccccc1 (stereo not drawn) | > 1000 | inactive | Not Active | 
